Values quoted from earlier work as cited in US10328004B2, “Sunscreen cosmetic” (SHISEIDO COMPANY, LTD., priority 2015, dated 2019).

Conditions: UVB wavelength range

maximum absorption wavelength: 312 nm
Structure (SMILES): CCCCC(CC)COC(=O)c1ccc(Nc2nc(Nc3ccc(C(=O)OCC(CC)CCCC)cc3)nc(Nc3ccc(C(=O)OCC(CC)CCCC)cc3)n2)cc1 (stereo not shown) [Ethylhexyl triazone]
